Literature values as cited in PMC6151961 (Journal of Enzyme Inhibition and Medicinal Chemistry, 2018).
Like-named read-outs stand apart in the source and are kept apart here.

Target: CA IX (Homo sapiens, UniProt Q16790)
Conditions: cited from earlier work
[1] = library compounds (IDs A…, B…) of Table S4, ref ChEMBL and BindingDB, read-out: Ki
[2] = library compounds (IDs A…, B…), values equal log10 of Ki in nM, ref ChEMBL and BindingDB
[3] = library compounds (IDs A…, B…), observed Ki towards CA IX, ref ChEMBL and BindingDB, read-out: Ki
[4] = observed Ki of library compounds (IDs A…, B…), ref ChEMBL and BindingDB, read-out: Ki
[5] = experimental pKi towards CA IX, library compounds, ref ChEMB database (ID A), BindingDB (ID B)
[6] = observed Ki towards CA IX, library compounds, ref ChEMB database (ID A), BindingDB (ID B), read-out: Ki
[7] = library compounds (IDs A..., B...), values equal log10 of Ki in nM, ref ChEMBL, BindingDB
[8] = observed Ki of library compounds (IDs A..., B...), ref ChEMBL, BindingDB, read-out: Ki

| SMILES | log10 of Ki in nM [2] | log10 of Ki in nM | Ki (read-out: Ki) | also measured |
| --- | --- | --- | --- | --- |
| NS(=O)(=O)c1ccc2c(c1)S(=O)(=O)C[C@H]2OCc1ccccc1 [A0131] | 0.447 |  |  | Ki [1]: 2.8 nM |
| NS(=O)(=O)c1ccc(OC2=NON(O)[C@@H]2S(=O)(=O)c2ccccc2)cc1 [A0390] | 0.806 |  |  | Ki [3]: 6.4 nM |
| COc1ccc2c(c1)CCN(S(N)(=O)=O)[C@H]2c1ccc(S(N)(=O)=O)cc1 [A0401] |  | 0.813 | 6.5 nM |  |
| COc1ccc2c(c1)CCN(S(N)(=O)=O)[C@H]2c1ccc(C#N)cc1 [A0427] | 0.845 |  |  | Ki [1]: 7 nM |
| NS(=O)(=O)c1ccc([C@H]2c3ccc(O)cc3CCN2S(N)(=O)=O)cc1 [A0504, reference compound] |  | 0.898 | 7.9 nM |  |
| O=S(=O)(NO)N[C@H]1C=C[C@H](O)[C@@H](CO)O1 [A0589] |  | 0.954 | 9 nM |  |
| COc1ccc2c(c1)CCN(S(N)(=O)=O)[C@H]2c1ccc(N)cc1 [A0718] | 1.079 |  |  | Ki [1]: 12 nM |
| COc1ccc2c(c1)CCN[C@H]2c1ccc(S(N)(=O)=O)cc1 [A0785] |  | 1.188 | 15.4 nM |  |
| CC[C@@H](Sc1nc(-c2cccc(OC)c2)c(C#N)c(=O)[nH]1)C(=O)Nc1ccc(S(N)(=O)=O)cc1 [A0953] | 1.380 |  |  | Ki [4]: 24 nM |
| NS(=O)(=O)c1ccc(CC/N=C\c2ccc(-c3ccccn3)cc2)cc1 [A1025] |  |  |  | log10 of Ki in nM [5]: 1.446; Ki [6]: 27.9 nM |
| CC1(C)CC(NC(=S)Nc2ccc(S(N)(=O)=O)cc2)CC(C)(C)N1O [A1198] | 1.613 |  |  | Ki [3]: 41 nM |
| CCOc1ccc2c(c1)CCN(S(N)(=O)=O)[C@H]2c1ccc(S(N)(=O)=O)cc1 [A1289] |  | 1.717 | 52.1 nM |  |
| NS(=O)(=O)c1ccc(N2C(=O)CS[C@@H]2c2cccc(F)c2)cc1 [A1295] | 1.725 |  |  | Ki [3]: 53.1 nM |
| NS(=O)(=O)c1ccc([C@H]2C(Oc3ccccc3)=NON2O)cc1 [A1359] | 1.806 |  |  | Ki [3]: 63.9 nM |
| CC(=O)N1N=C(c2ccc(C)cc2)C[C@H]1c1c(C)nn(-c2ccc(S(N)(=O)=O)cc2)c1Cl [A1383] | 1.827 |  |  | Ki [3]: 67.1 nM |
| COc1ccc2c(c1)CCN(S(N)(=O)=O)[C@H]2c1ccccc1 [A1457] | 1.892 |  |  | Ki [3]: 78 nM |
| CC(C)OS(N)(=O)=O [A2163] |  |  | 1000 nM |  |
| O=C(Cc1ccccc1Br)Oc1ccc2c(c1)OS(=O)(=O)CC2 [A2452] |  |  |  | log10 of Ki in nM [5]: 4.000; Ki [6]: 10000 nM |
| CC/C(=N/Nc1ccc([N+](=O)[O-])cc1)Sc1cc(Cl)c(C)cc1S(N)(=O)=O [A2453] | 4.000 |  |  | Ki [3]: 10000 nM |
| Cc1cc(S(N)(=O)=O)c(S/C(=N\Nc2ccc([N+](=O)[O-])cc2)c2ccccc2)cc1Cl [A2454] | 4.000 |  |  | Ki [1]: 10000 nM |

| SMILES | log10 of Ki in nM [2] | log10 of Ki in nM | Ki (read-out: Ki) | also measured |
| --- | --- | --- | --- | --- |
| CC(=O)CN1C(=O)C=C(C)OS1(=O)=O [A2477] | 4.301 |  |  | Ki [3]: 20000 nM |
| CCCN(CCC)S(=O)(=O)c1ccc(C(=O)N[C@H](CO)C(N)=O)cc1 [B0020] |  | 0.415 | 2.6 nM |  |
| N#C/C(=C/C=C\c1ccccc1)C(=O)Nc1ccc(S(N)(=O)=O)cc1 [B0085] |  |  |  | log10 of Ki in nM [7]: 0.690; Ki [8]: 4.9 nM |
| CC(=O)OC[C@H]1O[C@@H](n2cc(-c3ccc(S(N)(=O)=O)cc3)nn2)[C@@H](OC(C)=O)[C@@H](OC(C)=O)[C@@H]1OC(C)=O [B0096] |  | 0.699 | 5 nM |  |
| CC1=CC(c2ccccc2)C=C(C)N1CCc1ccc(S(N)(=O)=O)cc1 [B0111] | 0.778 |  |  | Ki [4]: 6 nM |
| CC(=O)OC[C@@H]1O[C@H](S(=O)(=O)Cc2cn(-c3ccc(S(N)(=O)=O)cc3)nn2)[C@@H](OC(C)=O)[C@H](OC(C)=O)[C@H]1OC(C)=O [B0149] |  | 0.875 | 7.5 nM |  |
| NS(=O)(=O)c1ccc(-n2cc(CS(=O)(=O)[C@@H]3O[C@@H](CO)[C@H](O)[C@@H](O)[C@H]3O)nn2)cc1 [B0162] |  | 0.908 | 8.1 nM |  |
| C[C@H](Nc1nc(NCc2ccc(S(N)(=O)=O)cc2)nc(N[C@@H](C)C(=O)O)n1)C(=O)O [B0173] |  | 0.929 | 8.5 nM |  |
| CC(=O)OC[C@@H]1O[C@@H](SCc2cn(-c3ccc(S(N)(=O)=O)cc3)nn2)[C@H](OC(C)=O)[C@@H](OC(C)=O)[C@@H]1OC(C)=O [B0180] |  | 0.934 | 8.6 nM |  |
| CC(=O)OC[C@@H]1O[C@@H](NS(N)(=O)=O)CC[C@H]1OC(C)=O [B0190] | 0.954 |  |  | Ki [4]: 9 nM |
| NS(=O)(=O)c1ccc(CCNc2nc(N[C@@H](CO)C(=O)O)nc(N[C@H](CO)C(=O)O)n2)cc1 [B0192] |  | 0.954 | 9 nM |  |
| Cn1nc(S(N)(=O)=O)s/c1=N/C(=O)c1c(F)c(F)cc(F)c1F [B0221] |  | 1.021 | 10.5 nM |  |
| COc1cc(/C=C\C(=O)OCCCCO[N+](=O)[O-])ccc1OC(=O)c1ccc(S(N)(=O)=O)cc1 [B0225] |  | 1.041 | 11 nM |  |
| NS(=O)(=O)c1cc(-c2nnc(-c3ccccc3)s2)c(Cl)cc1Cl [B0246] | 1.146 |  |  | Ki [3]: 14 nM |
| NS(=O)(=O)c1ccc(NC2=NC(=O)/C(=C\c3coc4ccccc4c3=O)S2)cc1 [B0247] | 1.146 |  |  | Ki [3]: 14 nM |
| CCCN(CCC)S(=O)(=O)c1ccc(C(=O)N[C@H](C)C(N)=O)cc1 [B0254, reference compound] |  |  |  | Ki (CA IX, library ligands, ref ChEMBL[43] and BindingDB[44], read-out: Ki): 15 nM; log10 of Ki in nM (CA IX, observed value, equals log of Ki in nM, ref ChEMBL[43] and BindingDB[44]): 1.176 |
| Cc1cc(C)o/c(=N\O)c1 [B0259] |  |  |  | log10 of Ki in nM [7]: 1.204; Ki [8]: 16 nM |
| Cc1ccc2nc(S)n(-c3ccc(S(N)(=O)=O)cc3)c(=O)c2c1 [B0260] | 1.204 |  |  | Ki [1]: 16 nM |
| Cc1cc(C)c2nc(S)n(-c3ccc(S(N)(=O)=O)cc3)c(=O)c2c1 [B0272] |  |  |  | log10 of Ki in nM [7]: 1.255; Ki [8]: 18 nM |
| CCO[C@H]1Oc2ccccc2C(=O)[C@@H]1/C=N\c1ccc(S(=O)(=O)Nc2nccs2)cc1 [B0283] | 1.301 |  |  | Ki [1]: 20 nM |

| SMILES | log10 of Ki in nM [2] | log10 of Ki in nM | Ki (read-out: Ki) | also measured |
| --- | --- | --- | --- | --- |
| COc1ccc(-c2nn(-c3ccc(S(N)(=O)=O)cc3)cc2/C=N/Nc2nc(-c3cc4cc(Br)ccc4oc3=O)cs2)cc1 [B0286] | 1.301 |  |  | Ki [3]: 20 nM |
| NS(=O)(=O)c1ccc(-n2cc(/C=N/Nc3nc(-c4cc5cc(Br)ccc5oc4=O)cs3)c(-c3ccc(Cl)cc3)n2)cc1 [B0302] | 1.362 |  |  | Ki [4]: 23 nM |
| CC1=C[C@H](c2ccccc2)C=C(c2ccccc2)N1c1ccc(S(=O)(=O)Nc2nnc(S(N)(=O)=O)s2)cc1 [B0314] | 1.380 |  |  | Ki [4]: 24 nM |
| Cc1ccc(-c2nn(-c3ccc(S(N)(=O)=O)cc3)cc2/C=N/Nc2nc(-c3cc4cc(Cl)ccc4oc3=O)cs2)cc1 [B0318] |  | 1.380 | 24 nM |  |
| CCOc1ccc(S(=O)(=O)NCCO)cc1-c1nnc2c(n1)c(C)nn2-c1ccc(C)cc1 [B0321] |  |  |  | Ki [8]: 25 nM |
| NS(=O)(=O)c1ccc(CNC(=S)Nc2ccc(C3c4ccc(O)cc4Oc4cc(O)ccc43)c(C(=O)O)c2)cc1 [B0334] | 1.415 |  |  | Ki [3]: 26 nM |
| CCCN(CCC)S(=O)(=O)c1ccc(C(=O)N[C@H](CO)C(=O)O)cc1 [B0340] |  |  |  | log10 of Ki in nM [5]: 1.431; Ki [6]: 27 nM |
| CCCN(CCC)S(=O)(=O)c1ccc(C(=O)N[C@H](CS)C(N)=O)cc1 [B0344] | 1.447 |  |  | Ki [1]: 28 nM |
| CN1N[C@@H](S(N)(=O)=O)S[C@H]1NC(=O)c1c(F)c(F)c(F)c(F)c1F [B0350] |  |  |  | log10 of Ki in nM [7]: 1.462; Ki [8]: 29 nM |
| NS(=O)(=O)c1ccc(N[C@H]2SC[C@@H](c3ccc([N+](=O)[O-])cc3)N2C2CCCCC2)cc1 [B0353] | 1.462 |  |  | Ki [1]: 29 nM |
| N#Cc1ccc(-c2cs/c(=N\c3ccc(S(N)(=O)=O)cc3)n2C2CCCCC2)cc1 [B0361] | 1.477 |  |  | Ki [4]: 30 nM |
| CC1=C[C@@H](C)C(C)=C(C)N1Cc1ccc(S(N)(=O)=O)cc1 [B0397] | 1.544 |  |  | Ki [4]: 35 nM |
| CC1(C)O[C@@H]2O[C@H]([C@@H]3COC(C)(C)O3)[C@@H](OS(N)(=O)=O)[C@@H]2O1 [B0417] |  | 1.591 | 39 nM |  |
| Cc1ccc(-c2cnc(C(=O)N3CCCC3)o2)cc1S(N)(=O)=O [B0431] |  |  |  | Ki [8]: 43 nM |
| CC1C=C(C(C)C)N(Cc2ccc(S(N)(=O)=O)cc2)C(C(C)C)=C1 [B0461] | 1.732 |  |  | Ki [3]: 54 nM |
| C[C@]12CC[C@H]3[C@@H]([C@H]1CCC2=O)[C@@H](O)C=C1C[C@@H](OS(N)(=O)=O)CC[C@]13C [B0490] |  | 1.813 |  | Ki: 65 nM |
| CC(=O)OC[C@@H]1O[C@H](NS(=O)(=O)NO)C=C[C@H]1OC(C)=O [B0526] |  | 1.898 | 79 nM |  |
| NS(=O)(=O)c1ccc(CCN2C(c3ccccc3)=CCC=C2c2ccccc2)cc1 [B0533] |  |  |  | log10 of Ki in nM [5]: 1.908; Ki [6]: 81 nM |
| CC1(C)O[C@H]2[C@H](CO[C@]3(CNC(=S)Nc4ccc(S(N)(=O)=O)cc4)OC(C)(C)O[C@H]23)O1 [B0536] |  | 1.914 | 82 nM |  |
| NS(=O)(=O)c1ccc(-n2cc(CO[C@H]3O[C@H](CO)[C@H](O[C@H]4O[C@H](CO)[C@@H](O)[C@@H](O)[C@H]4O)[C@@H](O)[C@@H]3O)nn2)cc1 [B0542] |  | 1.924 | 84 nM |  |
